In patent US20100111867A1, “CARBORANE-PHOSPHONIUM COMPOUNDS AND THEIR USE IN BORON NEUTRON CAPTURE THERAPY AND IMAGING” (THE UNIVERSITY OF SYDNEY, priority 2007, published 2010):

Columns and labels:
[1] = tested on: SF268 (human glioblastoma) cell line; assay: Preliminary in vitro cytotoxicity screening against SF268 cell line; assay type: cell-based
From the text: In contrast to the 1,12-carborane derivative 4, the 1,2- and 1,7-isomers undergo a deboronation reaction in polar solvents to afford the corresponding zwitterionic nido-carborane phosphonium species.

[2] = Deboronation of closo-carborane phosphonium salts in polar solvents; assay type: physicochemical; conditions: polar solvents such as DMSO
From the text: The deboronation reaction was not observed for 4, which contains 1,12-carborane. The inventors hypothesise that 4 is highly resistant to the deboronation reaction because no boron atoms within the cluster are bonded to two adjacent and electronegative carbon atoms. The facile deboronation of closo-1,2-carborane under mild, non-basic conditions is known with alcohols, water and acids (E. Svantesson, J. Pettersson, Å. Olin, K. Markides, S. Sjöberg, Acta Chem. Scand., 1999, 53, 731. V. A. Ol'shevskaya, R. Ayuob, Z. G. Brechko, P. V. Petrovskii, E. G. Kononova, G. L. Levit, V. P. Krasnov, V. N. Charushin, O. N. Chupakhin, V. N. Kalinin, J. Organomet. Chem., 2005, 690, 2761. Y.-J. Lee, J.-D. Lee, J. Ko, S.-H. Kim, S. O. Kang, Chem. Commun., 2003, 1364) and has also been observed when functional groups located α- to the cage are electron-withdrawing and the compounds are exposed to polar solvents containing small amounts of H2O or MeOH (J. J. Schaeck, S. B. Kahl, Inorg. Chem., 1999, 38, 204). In the present case, the deboronation reactions occur in polar solutions such as dry DMF and thus most likely proceed by nucleophilic attack of the iodide counter-ion on the most electrophilic boron atoms in the cage, i.e. B3 (or B6) for 1,2-carborane and B2 (or B3) for 1,7-carborane.

Molecule | GI50 [1] [µM] | deboronation reaction to nido-carborane zwitterion [2]
C[P+](c1ccccc1)(c1ccccc1)c1ccccc1 [TPMP, triphenylmethylphosphonium, reference compound] | 12.5 | 
methyldiphenyl(1,2-dicarba-closo-dodecaboranyl)phosphonium iodide [Compound 5] |  | spontaneously deboronate
methyldiphenyl(1,7-dicarba-closo-dodecaboranyl)phosphonium iodide [Compound 6] |  | spontaneously deboronate
methyldiphenyl(1,12-dicarba-closo-dodecaboranyl)phosphonium iodide [Compound 4] | > 40 | not observed
